Source: US20160137714A1 (Thrasos Innovation, Inc., priority 2014, published 2016)
Entries after “also recorded” stand apart in the source; their conditions may differ. No end group written: not given here.

How the values were obtained:
[1] = test system: Adriamycin (ADR)-induced proteinuria; assay: Adriamycin (ADR)-induced nephropathy model; assay type: in vivo; details: rat
From the text: Adriamycine (doxorubicin) is a drug used in chemotherapy. It is known to cause undesirable renal toxicitiy in rat, mainly glomerular damage (via podocyte injury/loss), resulting in proteinuric neophrapthy (Hakroush et al., 2014, J. Am. Soc. Nephrology, 25:927-38), and it is the prototypical model of human primary focal and segmental glomerulosclerosis. ADR-induced mephropathy, in mouse or rat, is a robust in vivo model of proteinuria that can easily and directly be measured in urine, thus allowing for monitoring of disease progression in living animals. It is induced by a single intravenous injection of ADR.
Male CD rats (aged 8 weeks) were acclimatized in the facility for at least 5 days. On Day 0, rats received Adriamycin at a dose level of 7.5 mg/kg by tail vein administration at a dose volume of 5 mL/kg. If needed, an abbocath was used for administration. The abbocath will be flushed with 0.5 mL of 0.9% saline after Adriamycin injection. […]
Once pretreatment and on pre-determined days (e.g. days 5, 10, 15, 20) blood samples (0.7 mL) was collected from the jugular vein in SST tubes and analyzed for serum creatinine and BUN. Once pretreatment and on pre-determined days (e.g. days 5, 10, 15, 20) urine samples were collected overnight from individually housed animals. After collection, serum and urine samples were processed and analyzed for creatinine (serum & urine), BUN (serum) and total protein (urine). […] The time the animals are placed in urine collection cages and time of sample collection was recorded. […]
Once pretreatment and on Day 21, blood samples (0.7 mL) were collected from the jugular vein in SST tubes and analyzed for serum creatinine and BUN. Once pretreatment and on pre-determined days (Days 5, 10, 15, 21) urine samples were collected overnight from individually housed animals. After collection, serum and urine samples were processed and analyzed for creatinine (serum & urine), BUN (serum) and total protein (urine). […] The time the animals are placed in urine collection cages and time of sample collection was recorded. […]

[2] = rat kidney tissue 10 minutes post IV administration; details: up to 10 minutes
[3] = plasma after s.c. administration of 1 mg/kg Compound III; after IV administration
[4] = fresh mouse or rat plasma; details: 37° C., up to 120 min (Table 6; protocol lists up to 1440)
FIGURE 31 (2/2) = assay: FIGURE 31 (2/2)
Method: Table printed on a drawing sheet, FIGURE 31 (2/2)
Peptide to internal standard peak area ratios were used calculate percentage remaining peptide at 60 minutes and 120 minutes. Peptides are identified by GPR number (GPR#) and SEQ ID NO.
First reader's note: Second part (2/2) of Figure 31, continued from the previous sheet; in the last row (GPR 478) the empty N-Terminal cell is merged with position 1.

Q: For CCOC(=O)[C@H](CCc1ccccc1)N[C@@H](C)C(=O)N1CCC[C@H]1C(=O)O [Enalapril], which “ADR-induced renal lesions in H&E-stained kidney sections” value ([1]; 21 days post ADR, treated daily, glomerular hypertrophy, protein casts, tubular dilation, neutrophils) is on record?
A: Its value is “absent or reduced in number”.

Q: What about the “effect on ADR-induced proteinuria (urine protein to urine creatinine)” value ([1]; ADR 7.5 mg/kg, daily for 21 days, GPR-405 300 nmol/kg sc, enalapril 50 mg/kg po) of the same compound?
A: The value was “efficacious”.

Q: What about the “effect on serum creatinine (sCr) and blood urea nitrogen (BUN)” value ([1]; following Adriamycin treatment, GPR-405 300 nmol/kg sc, enalapril 50 mg/kg po, FIG. 24) of the same compound?
A: The value was “Neither enalapril nor GPR-405 had any marked effect”.

Q: With “CYFDDSSNVLCKKYRS (cysteine pairing not given here)” as the compound, how does the cleaved bond [2] read?
A: Its cleaved bond is “Y14-R15, major, 10 minutes”.

Q: What about the fragment found [2] of the same compound?
A: The fragment found was “VI (GPR-263) Cys-Tyr-Phe-Asp-Asp-Ser-Ser-Asn-Val-Leu-Cys, 10 minutes; also recorded: VIII (GPR-262) Cys-Tyr-Phe-Asp-Asp-Ser-Ser-Asn-Val-Leu-Cys-Lys, 10 minutes; also recorded: IX (GPR-261) Cys-Tyr-Phe-Asp-Asp-Ser-Ser-Asn-Val-Leu-Cys-Lys-Lys, 10 minutes”.

Q: For “Cys-Tyr-Phe-Asp-Asp-Ser-Ser-Asn-Val-Leu-Cys-Lys-Lys-D-tyr-Arg-Ser”, which not cleaved [3] is on record?
A: The not cleaved was “prevented the proteolytic cleavage between the amino acids 14 and 15”.

Q: With “Cys-Tyr-Tyr-Asp-Asp-Ser-Ser-Ser-Val-Leu-Cys-Lys-Lys-D-tyr-Arg-Ser” as the compound, how does the not cleaved [4] read?
A: The not cleaved was 94.7 percent remaining at 120 min.

Q: For “Y Y F S S S F V L C K R y* R S [478 | 68]”, which “% Remaining at 60 and 120 minutes | 60” value (FIGURE 31 (2/2)) is on record?
A: The value was 87.7%.

Q: What about the “% Remaining at 60 and 120 minutes | 120” value (FIGURE 31 (2/2)) of the same compound?
A: The value was 78.9%.
